Data as given in PMC7828231, “Delphinidin Increases the Sensitivity of Ovarian Cancer Cell Lines to 3-bromopyruvate” (International Journal of Molecular Sciences, 2021).
Like-named read-outs stand apart in the source and are kept apart here.

How the values were obtained:
Assay type in all cases: cell-based, human
MRC-5 fibroblasts [1] = experiment: Cytotoxicity, Neutral Red survival assay
Experimental: (§1) SKOV3 and PEO1 cells were seeded in a clear 96-well plate at a density of 1 × 10^4 cells/well in 100-µL culture medium. MRC-5 cells were seeded at a density of 7.5 × 10^3/well and allowed to attach for 24 h at 37 °C. After incubation, the cells were treated with delphinidin chloride in a concentration range of 10–100 µM and 3-BP at concentrations between 5–25 µM for PEO1 and 10–50 µM for MRC-5 and SKOV3. Nontreated cells were used as a control. Stock solutions of tested substances were prepared in DMSO and their working solutions in culture media. The DMSO concentration was adjusted to 0.2% in all samples, which had no significant effect on the treated cells. After 24-h exposure time, the medium was removed and replaced with 100 µL of […] neutral red solution, and the cells were incubated at 37 °C for 1 h. Then, the cells were washed with PBS; fixed with 100 µL/well of 50% ethanol, 49% H2O and 1% glacial acetic acid and shaken (700 rpm) at room temperature for 20 min. Absorbance was measured at 540 nm against 620 nm.

PEO1 cells [2] = experiment: Cytotoxicity, Neutral Red survival assay; conditions: read-out: IC50 of cell survival
Experimental: as §1

SKOV3 cells [3] = experiment: Cytotoxicity, Neutral Red survival assay; conditions: read-out: IC50 of cell survival
Experimental: as §1

MRC-5 fibroblasts [4] = experiment: GSH content (OPA); conditions: 25-µM D, 40 µM 3-BP, 24 h
Experimental: (§2) The content of reduced glutathione was assayed with OPA [63]. Briefly, the cells were seeded in wells of a transparent 96-well plate at a density of 7.5 × 10^3/well (MRC-5) or 1 × 10^4/well (cancer cells) and allowed to attach at 37 °C for 24 h. After 24-h treatment with the tested compounds, the medium was removed, the cells were washed with PBS (150 µL per well) and then added with 60 µL/well of cold redox quenching buffer (RQB) containing 20-mM HCl, 5% TCA, 5-mM DTPA and 10-mM L-ascorbic acid. The plate was shaken for 5 minutes and centrifuged for 5 minutes at 4000 rpm. Next, the supernatant was transferred into two 96-well black plates (“+NEM” and “–NEM”; 25 µL/well). Within the “+NEM” plate, 4 µL/well of freshly prepared 7.5-mM NEM in cold RQB buffer was added. Then, 1-M phosphate buffer (pH 7.0) was added into both plates (40 µL/well), and the plates were shaken for 5 min at 700 rpm. Finally, 160 µL/well of cold 0.1-M phosphate buffer (pH 6.8) and 25 µL/well of freshly prepared 0.5% OPA in methanol were added into both plates. Both plates were incubated for 30 minutes at room temperature with constant shaking. Fluorescence was then measured at 355/430 nm. The protein contents in the cell lysates were determined according to Lowry et al.. The concentration of reduced glutathione was determined by subtracting […] and calculated with respect to the protein content.

PEO1 cells [5] = experiment: GSH content (OPA); conditions: 25-µM D, 20 µM 3-BP, 24 h
Experimental: as §2

SKOV3 cells [6] = experiment: GSH content (OPA); conditions: 25-µM D, 40 µM 3-BP, 24 h
Experimental: as §2

PEO1 cells [7] = experiment: Mitochondrial mass (NAO); conditions: 25-µM D, 20 µM 3-BP, 24 h
Experimental: (§3) Cells were seeded at the density of 2 × 10^5 cells/well onto a 24-well plate and cultured as stated before. Following 24-hour exposure to the studied compounds, the cells were trypsinized, counted and transferred to separate Eppendorf tubes, and then centrifuged for 6 minutes at 3000 rpm. Subsequently the supernatant was discharged and the cells were washed with 1 mL of PBS and centrifuged again. Afterwards, 1 mL of 10 μM NAO solution in PBS was added into the samples, and incubated for 10 min in a CO2 incubator at 37 °C. Next, the cells were centrifuged and the pellet was washed with PBS, and resuspended in 300 μL of PBS. Each sample was transferred into a 96-well black plate (100 μL/well; 3 repetitions). Fluorescence was measured at 435/535 nm. The results were determined in relation to the cell count.

SKOV3 cells [8] = experiment: Mitochondrial mass (NAO); conditions: 25-µM D, 40 µM 3-BP, 24 h
Experimental: as §3

SKOV3 cells [9] = experiment: Cell migration (scraped area closure)
Experimental: Ovarian cancer cells and human normal fibroblasts were seeded on a 24-well plate at a density of 7 × 10^4/well (PEO1), 6.5 × 10^4/well (SKOV3) and 6 × 10^4/well (MRC-5) in 700 µL of appropriate cell medium and cultured at 37 °C to reach 90–95% confluence. Then, the cells in the middle of the wells were scraped off using sterile pipette tips (100 µL), cell debris was removed by washing with medium containing 2% FBS and the tested compounds diluted with medium containing 2% FBS were added. Images of the scraped area were collected after 12 h and 24 h at 10× objective magnification using an Olympus CKX53 microscope with a U-TV0. 5XC-3 digital microscope camera. The obtained results were analyzed using ImageJ software. The percentage of scraped area closure was estimated as the ratio of area measured after 12- or 24-h incubation and the area at the beginning of the experiment.

PEO1 cells [10] = experiment: Apoptosis and necrosis assay (RealTime-Glo Annexin V); conditions: after 24 h
Experimental: The levels of apoptosis and necrosis were assayed using the RealTime-Glo™ Annexin V Apoptosis and Necrosis Assay. Cells were seeded into a white 96-well plate with optical bottom, cultured and treated adequately, as stated above. After 24 h, 100 μL of the freshly prepared reagent was added to each well according to the manufacturer’s protocols. The fluorescence and luminescence were measured according to the protocols.

For O=C(O)C(=O)CBr [3-BP, 3-bromopyruvic acid], the “survival of MRC-5 fibroblasts” value (MRC-5 fibroblasts [1]; up to a concentration of 50 µM) was “not compromised”, the IC50 (PEO1 cells [2]; Homo sapiens, PEO1, 24 h) was 18.7 µM and the IC50 (SKOV3 cells [3]; Homo sapiens, SK-OV-3, 24 h) was 40.5 µM. For the same compound, the GSH level (MRC-5 fibroblasts [4]) was “neither 3-BP or D alone modified”, the GSH level (PEO1 cells [5]) was “decreased” and the GSH level (SKOV3 cells [6]) was “increased”. The mitochondrial mass (PEO1 cells [7]) was “increased”, the mitochondrial mass (SKOV3 cells [8]) was “increased” and the cell migration (SKOV3 cells [9]) was “decreased”. For the same compound, the induction of necrosis (PEO1 cells [10]) was “considerable induction of necrosis”.
For Oc1cc(O)c2cc(O)c(-c3cc(O)c(O)c(O)c3)[o+]c2c1 [Delphinidin chloride, 3,3′,4′,5,5′,7-hexahydroxyflavylium], the “survival / viability of MRC-5 fibroblasts” value (MRC-5 fibroblasts [1]; up to 100 µM) was “did not affect”, the IC50 (PEO1 cells [2]; Homo sapiens, PEO1, 24 h, PEO1, 24-h exposure, Neutral Red, ND = no reduction of survival in the concentration range studied) was under 100 µM and the IC50 (PEO1 cells [2]; PEO1, 24-h exposure, Neutral Red, ND = no reduction of survival in the concentration range studied) was 71.5 µM. The IC50 (SKOV3 cells [3]; Homo sapiens, SK-OV-3, 24 h, SKOV3, 24-h exposure, Neutral Red, ND = no reduction of survival in the concentration range studied) was under 100 µM, the IC50 (SKOV3 cells [3]; SKOV3, 24-h exposure, Neutral Red, ND = no reduction of survival in the concentration range studied) was 57.5 µM and the GSH level (MRC-5 fibroblasts [4]) was “neither 3-BP or D alone modified”. For the same compound, the GSH level (PEO1 cells [5]) was “did not affect”, the GSH level (SKOV3 cells [6]) was “without effect” and the mitochondrial mass (PEO1 cells [7]) was “increased”. The mitochondrial mass (SKOV3 cells [8]) was “decreased”, the cell migration (SKOV3 cells [9]) was “decreased” and the induction of necrosis (PEO1 cells [10]) was “considerable induction of necrosis”.
